According to ChEMBL document CHEMBL3885881, “DrugMatrix”:

Species: Rattus norvegicus
Test: DrugMatrix - Regimen: Daily Repeat
Format: toxicity, organism-based, Sprague-Dawley
Set-up: regimen Daily Repeat, gender Male, age 6-8 weeks
Details: in vivo, po, route oral GAVAGE, vehicle .5 % CMC; for BASOPHIL / EOSINOPHIL / ERYTHROCYTE COUNT / HEMATOCRIT / HEMOGLOBIN / LEUKOCYTE COUNT / LYMPHOCYTE / MEAN CORPUSCULAR HEMOGLOBIN / MEAN CORPUSCULAR HEMOGLOBIN CONCENTRATION / MEAN CORPUSCULAR VOLUME / MONOCYTE / NEUTROPHIL / PLATELET COUNT: tissue Blood; for ALANINE AMINOTRANSFERASE / ALBUMIN / ALKALINE PHOSPHATASE / ASPARTATE AMINOTRANSFERASE / BLOOD UREA NITROGEN / CARBON DIOXIDE / CHLORIDE / CHOLESTEROL / CREATINE PHOSPHOKINASE / CREATININE / GLUCOSE / LACTATE DEHYDROGENASE / LIPASE / PHOSPHORUS / POTASSIUM / SODIUM / TOTAL BILIRUBIN / TOTAL PROTEIN / URIC ACID: tissue Plasma
[1] = 0 mg/kg, 96 h, dose level Control, time 4 day
[2] = 0 mg/kg, […], dose level Control, time 6 day
[3] = 0 mg/kg, […], dose level Control, time 14 day
[4] = 750 mg/kg, 96 h, dose level High, time 4 day
[5] = 750 mg/kg, […], dose level High, time 6 day
[6] = 750 mg/kg, […], dose level High, time 14 day

Cc1ccc([N+](=O)[O-])cc1 [4-NITROTOLUENE]
BASOPHIL [1]: 0.5% | EOSINOPHIL [1]: 1.85% | ERYTHROCYTE COUNT [1]: 6.99 x10E6/uL | HEMATOCRIT [1]: 43.82% | HEMOGLOBIN [1]: 13.87 G/DL | LEUKOCYTE COUNT [1]: 12.01 x10E3/uL | LYMPHOCYTE [1]: 82.07% | MEAN CORPUSCULAR HEMOGLOBIN [1]: 19.8 pg | MEAN CORPUSCULAR HEMOGLOBIN CONCENTRATION [1]: 31.63 G/DL | MEAN CORPUSCULAR VOLUME [1]: 62.7 fL | MONOCYTE [1]: 2.6% | NEUTROPHIL [1]: 12.38% | PLATELET COUNT [1]: 1155 x10E3/uL | ALANINE AMINOTRANSFERASE [1]: 31.67 u/L | ALBUMIN [1]: 4.12 G/DL | ALKALINE PHOSPHATASE [1]: 396 u/L | ASPARTATE AMINOTRANSFERASE [1]: 75.67 u/L | BLOOD UREA NITROGEN [1]: 17.5 mg/dL | CARBON DIOXIDE [1]: 28.83 mmol/L | CHLORIDE [1]: 103.83 MEQ/L | CHOLESTEROL [1]: 84.83 mg/dL | CREATINE PHOSPHOKINASE [1]: 597.17 u/L | CREATININE [1]: 0.3 mg/dL | GLUCOSE [1]: 161.5 mg/dL | LACTATE DEHYDROGENASE [1]: 138.67 u/L | LIPASE [1]: 11.5 u/L | PHOSPHORUS [1]: 11.58 mg/dL | POTASSIUM [1]: 6.87 MEQ/L | SODIUM [1]: 146.83 MEQ/L | TOTAL BILIRUBIN [1]: 0.38 mg/dL | TOTAL PROTEIN [1]: 6.33 G/DL | URIC ACID [1]: 1.37 mg/dL | BASOPHIL [2]: 0.37% | EOSINOPHIL [2]: 0.38% | ERYTHROCYTE COUNT [2]: 6.89 x10E6/uL | HEMATOCRIT [2]: 47.38% | HEMOGLOBIN [2]: 14.8 G/DL | LEUKOCYTE COUNT [2]: 13.59 x10E3/uL | LYMPHOCYTE [2]: 80.27% | MEAN CORPUSCULAR HEMOGLOBIN [2]: 21.52 pg | MEAN CORPUSCULAR HEMOGLOBIN CONCENTRATION [2]: 31.22 G/DL | MEAN CORPUSCULAR VOLUME [2]: 68.83 fL | MONOCYTE [2]: 2.78% | NEUTROPHIL [2]: 15.65% | PLATELET COUNT [2]: 1330.17 x10E3/uL | BASOPHIL [3]: 0.38% | EOSINOPHIL [3]: 0.6% | ERYTHROCYTE COUNT [3]: 7.78 x10E6/uL | HEMATOCRIT [3]: 48.3% | HEMOGLOBIN [3]: 15.42 G/DL | LEUKOCYTE COUNT [3]: 13.55 x10E3/uL | LYMPHOCYTE [3]: 81.18% | MEAN CORPUSCULAR HEMOGLOBIN [3]: 19.8 pg | MEAN CORPUSCULAR HEMOGLOBIN CONCENTRATION [3]: 31.92 G/DL | MEAN CORPUSCULAR VOLUME [3]: 62.08 fL | MONOCYTE [3]: 1.72% | NEUTROPHIL [3]: 15.17% | PLATELET COUNT [3]: 1083.83 x10E3/uL | ALANINE AMINOTRANSFERASE [2]: 36 u/L | ALBUMIN [2]: 4.03 G/DL | ALKALINE PHOSPHATASE [2]: 354.17 u/L | ASPARTATE AMINOTRANSFERASE [2]: 76.5 u/L | BLOOD UREA NITROGEN [2]: 19.33 mg/dL | CARBON DIOXIDE [2]: 27.83 mmol/L | CHLORIDE [2]: 105.5 MEQ/L | CHOLESTEROL [2]: 68.83 mg/dL | CREATINE PHOSPHOKINASE [2]: 383.83 u/L | CREATININE [2]: 0.35 mg/dL | GLUCOSE [2]: 165.83 mg/dL | LACTATE DEHYDROGENASE [2]: 155.17 u/L | LIPASE [2]: 9.83 u/L | PHOSPHORUS [2]: 12.4 mg/dL | POTASSIUM [2]: 6.9 MEQ/L | SODIUM [2]: 147.33 MEQ/L | TOTAL BILIRUBIN [2]: 0.52 mg/dL | TOTAL PROTEIN [2]: 6.42 G/DL | URIC ACID [2]: 1.6 mg/dL | ALANINE AMINOTRANSFERASE [3]: 36.83 u/L | ALBUMIN [3]: 4.13 G/DL | ALKALINE PHOSPHATASE [3]: 328.17 u/L | ASPARTATE AMINOTRANSFERASE [3]: 74.83 u/L | BLOOD UREA NITROGEN [3]: 18.67 mg/dL | CARBON DIOXIDE [3]: 29.33 mmol/L | CHLORIDE [3]: 105.17 MEQ/L | CHOLESTEROL [3]: 72 mg/dL | CREATINE PHOSPHOKINASE [3]: 217.67 u/L | CREATININE [3]: 0.45 mg/dL | GLUCOSE [3]: 151.17 mg/dL | LACTATE DEHYDROGENASE [3]: 133.17 u/L | LIPASE [3]: 14.5 u/L | PHOSPHORUS [3]: 11.55 mg/dL | POTASSIUM [3]: 6.77 MEQ/L | SODIUM [3]: 149.33 MEQ/L | TOTAL BILIRUBIN [3]: 0.37 mg/dL | TOTAL PROTEIN [3]: 6.62 G/DL | URIC ACID [3]: 1.57 mg/dL | BASOPHIL [4]: 0.3% | EOSINOPHIL [4]: 0.63% | ERYTHROCYTE COUNT [4]: 6.55 x10E6/uL | HEMATOCRIT [4]: 41.57% | HEMOGLOBIN [4]: 12.83 G/DL | LEUKOCYTE COUNT [4]: 12.7 x10E3/uL | LYMPHOCYTE [4]: 82.73% | MEAN CORPUSCULAR HEMOGLOBIN [4]: 19.6 pg | MEAN CORPUSCULAR HEMOGLOBIN CONCENTRATION [4]: 30.9 G/DL | MEAN CORPUSCULAR VOLUME [4]: 63.5 fL | MONOCYTE [4]: 1.93% | NEUTROPHIL [4]: 13.9% | PLATELET COUNT [4]: 1261.33 x10E3/uL | ALANINE AMINOTRANSFERASE [4]: 28.33 u/L | ALBUMIN [4]: 3.93 G/DL | ALKALINE PHOSPHATASE [4]: 300 u/L | ASPARTATE AMINOTRANSFERASE [4]: 82.67 u/L | BLOOD UREA NITROGEN [4]: 18.67 mg/dL | CARBON DIOXIDE [4]: 25.33 mmol/L | CHLORIDE [4]: 106 MEQ/L | CHOLESTEROL [4]: 90 mg/dL | CREATINE PHOSPHOKINASE [4]: 852 u/L | CREATININE [4]: 0.4 mg/dL | GLUCOSE [4]: 175.33 mg/dL | LACTATE DEHYDROGENASE [4]: 320.67 u/L | LIPASE [4]: 11 u/L | PHOSPHORUS [4]: 12.03 mg/dL | POTASSIUM [4]: 6.37 MEQ/L | SODIUM [4]: 147 MEQ/L | TOTAL BILIRUBIN [4]: 0.4 mg/dL | TOTAL PROTEIN [4]: 6.07 G/DL | URIC ACID [4]: 1.5 mg/dL | BASOPHIL [5]: 0.2% | EOSINOPHIL [5]: 0.4% | ERYTHROCYTE COUNT [5]: 6.89 x10E6/uL | HEMATOCRIT [5]: 50% | HEMOGLOBIN [5]: 14.85 G/DL | LEUKOCYTE COUNT [5]: 11.06 x10E3/uL | LYMPHOCYTE [5]: 89% | MEAN CORPUSCULAR HEMOGLOBIN [5]: 21.5 pg | MEAN CORPUSCULAR HEMOGLOBIN CONCENTRATION [5]: 29.65 G/DL | MEAN CORPUSCULAR VOLUME [5]: 72.6 fL | MONOCYTE [5]: 0.95% | NEUTROPHIL [5]: 9% | PLATELET COUNT [5]: 1574 x10E3/uL | BASOPHIL [6]: 0.68% | EOSINOPHIL [6]: 0.52% | ERYTHROCYTE COUNT [6]: 7.67 x10E6/uL | HEMATOCRIT [6]: 48.12% | HEMOGLOBIN [6]: 15.24 G/DL | LEUKOCYTE COUNT [6]: 10.23 x10E3/uL | LYMPHOCYTE [6]: 81.12% | MEAN CORPUSCULAR HEMOGLOBIN [6]: 19.9 pg | MEAN CORPUSCULAR HEMOGLOBIN CONCENTRATION [6]: 31.7 G/DL | MEAN CORPUSCULAR VOLUME [6]: 62.76 fL | MONOCYTE [6]: 2.12% | NEUTROPHIL [6]: 14.52% | PLATELET COUNT [6]: 1133.4 x10E3/uL | ALANINE AMINOTRANSFERASE [5]: 39 u/L | ALBUMIN [5]: 4.2 G/DL | ALKALINE PHOSPHATASE [5]: 351.67 u/L | ASPARTATE AMINOTRANSFERASE [5]: 89 u/L | BLOOD UREA NITROGEN [5]: 16.67 mg/dL | CARBON DIOXIDE [5]: 29.33 mmol/L | CHLORIDE [5]: 106 MEQ/L | CHOLESTEROL [5]: 68 mg/dL | CREATINE PHOSPHOKINASE [5]: 701.67 u/L | CREATININE [5]: 0.6 mg/dL | GLUCOSE [5]: 151.33 mg/dL | LACTATE DEHYDROGENASE [5]: 127 u/L | LIPASE [5]: 10.67 u/L | PHOSPHORUS [5]: 11.57 mg/dL | POTASSIUM [5]: 6.27 MEQ/L | SODIUM [5]: 149.33 MEQ/L | TOTAL BILIRUBIN [5]: 0.33 mg/dL | TOTAL PROTEIN [5]: 6.5 G/DL | URIC ACID [5]: 1.4 mg/dL | ALANINE AMINOTRANSFERASE [6]: 40.6 u/L | ALBUMIN [6]: 4.04 G/DL | ALKALINE PHOSPHATASE [6]: 340.4 u/L | ASPARTATE AMINOTRANSFERASE [6]: 91.2 u/L | BLOOD UREA NITROGEN [6]: 18.2 mg/dL | CARBON DIOXIDE [6]: 28.6 mmol/L | CHLORIDE [6]: 105.6 MEQ/L | CHOLESTEROL [6]: 66.6 mg/dL | CREATINE PHOSPHOKINASE [6]: 631.6 u/L | CREATININE [6]: 0.56 mg/dL | GLUCOSE [6]: 157.4 mg/dL | LACTATE DEHYDROGENASE [6]: 226.6 u/L | LIPASE [6]: 13.6 u/L | PHOSPHORUS [6]: 12.16 mg/dL | POTASSIUM [6]: 6.96 MEQ/L | SODIUM [6]: 149.8 MEQ/L | TOTAL BILIRUBIN [6]: 0.38 mg/dL | TOTAL PROTEIN [6]: 6.12 G/DL | URIC ACID [6]: 1.8 mg/dL
